Assay results taken from ChEMBL document CHEMBL1201862, “PubChem BioAssay data set” (2004).
Activity calls are given as the source filed them. Rule as the data show it, for most assays here: actives have a measured EC50 and inactives only a lower limit.

Experiments:
[1] = biological target: T1, Corticotropin-releasing factor receptor 2/Corticotropin-releasing factor-binding protein (Homo sapiens, UniProt P24387+Q13324); assay: Dose Response confirmation of uHTS hits for small molecule antagonists of the CRF-binding protein and CRF-R2 receptor complex.; type: functional; details: read-out: IC50_Mean
T1 sequence (Q13324 whole entry): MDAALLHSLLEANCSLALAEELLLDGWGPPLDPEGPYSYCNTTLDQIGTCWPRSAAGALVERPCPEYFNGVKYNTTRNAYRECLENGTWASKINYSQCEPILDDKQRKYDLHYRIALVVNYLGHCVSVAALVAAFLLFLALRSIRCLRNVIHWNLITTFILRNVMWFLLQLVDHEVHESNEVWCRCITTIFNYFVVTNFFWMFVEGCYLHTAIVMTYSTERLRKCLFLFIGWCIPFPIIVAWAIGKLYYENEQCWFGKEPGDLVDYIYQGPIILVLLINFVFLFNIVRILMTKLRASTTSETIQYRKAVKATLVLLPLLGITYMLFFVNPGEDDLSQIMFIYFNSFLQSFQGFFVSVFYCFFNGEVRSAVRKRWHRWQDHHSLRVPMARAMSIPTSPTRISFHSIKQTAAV
T1 sequence (P24387 whole entry): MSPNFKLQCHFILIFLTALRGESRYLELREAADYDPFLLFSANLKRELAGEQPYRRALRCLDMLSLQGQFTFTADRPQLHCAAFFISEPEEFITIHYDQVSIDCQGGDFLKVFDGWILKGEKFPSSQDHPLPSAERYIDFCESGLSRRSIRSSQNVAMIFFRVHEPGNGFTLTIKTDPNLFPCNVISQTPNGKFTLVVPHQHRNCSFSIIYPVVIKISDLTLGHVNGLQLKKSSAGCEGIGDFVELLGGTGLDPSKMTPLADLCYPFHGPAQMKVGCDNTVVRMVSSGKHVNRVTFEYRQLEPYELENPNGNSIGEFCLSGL

[2] = biological target: T1, Corticotropin-releasing factor receptor 2/Corticotropin-releasing factor-binding protein; assay: activators of CRF receptor 2 with binding protein – uHTS hits, confirmation (AID 602473); type: functional; details: read-out: EC50_Mean
[3] = NIH3T3 cell viability loss – ATP luminescence, mouse fibroblasts, counter-screen, dose response (AID 2010); type: functional, cell-based;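 also: cells exposed to compound for about 90 hours before reading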
[4] = Trypanosoma cruzi growth suppression in host cells – NIH3T3 host cells, beta-gal luminescence, confirmation (AID 2044); type: functional, cell-based;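 also: intracellular parasites grown in NIH/3T3 mouse fibroblasts as host cells; luminescent beta-galactosidase reporter signal from transgenic T. cruzi replicating inside host cells; inhibitors lower the luminescence signal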
INS1 = assay: INS-1E survival protection against cytokine death – cell-based, luminescence, retest, dose response (AID 449756); type: functional; details: Rattus norvegicus;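 also: cell death triggered by IL-1 beta plus TNF-alpha plus IFN-gamma mixture; protective hits raise ATP signal compared with cytokine alone wells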
Cytochrome P450 2D6 = Cytochrome P450 2D6 (Homo sapiens, UniProt P10635);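 also: CYP2D6 member of a cytochrome P450 panel assay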
Streptococcus = assay: GAS UMAA2166 growth inhibition – luminescence, BacTiterGlo, counter-screen for streptokinase expression inhibitor project, dose response (AID 1915); type: functional, organism-based;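 also: potency for reduction of bacterial viability or growth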
[5] = tested on: Streptococcus sp. 'group A'; assay: Streptococcus pyogenes SK(-)GAS viability under kanamycin – luminescence, BacTiterGlo, confirmation, counter-screen for streptokinase expression inhibitor project, dose response (AID 1900); type: functional, organism-based
[6] = Luminescence Cell-Based Dose Response HTS to Identify Inhibitors of 5'UTR Stem-Loop Driven Prion Protein mRNA Translation in H4 Neuroglioblastoma Cells. [Related pubchem assays: 1827 (Project Summary), 1813 (Primary HTS)]; type: functional
[7] = alpha-synuclein stem-loop luciferase translation blockers – H4 neuroglioma cells, luminescence, confirmation (AID 1988); type: functional, cell-based
Streptokinase A = biological target: T2, Streptokinase A (Streptococcus pyogenes serotype M1, UniProt P10520); assay: viability-normalized secreted streptokinase activity reduction – plasminogen activation absorbance, OD405, dose response (AID 1914); type: functional, Streptococcus pyogenes M1 GAS;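 also: secreted streptokinase activity via plasminogen activation per viability signal from cell pellet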
T2 sequence (P10520 whole entry): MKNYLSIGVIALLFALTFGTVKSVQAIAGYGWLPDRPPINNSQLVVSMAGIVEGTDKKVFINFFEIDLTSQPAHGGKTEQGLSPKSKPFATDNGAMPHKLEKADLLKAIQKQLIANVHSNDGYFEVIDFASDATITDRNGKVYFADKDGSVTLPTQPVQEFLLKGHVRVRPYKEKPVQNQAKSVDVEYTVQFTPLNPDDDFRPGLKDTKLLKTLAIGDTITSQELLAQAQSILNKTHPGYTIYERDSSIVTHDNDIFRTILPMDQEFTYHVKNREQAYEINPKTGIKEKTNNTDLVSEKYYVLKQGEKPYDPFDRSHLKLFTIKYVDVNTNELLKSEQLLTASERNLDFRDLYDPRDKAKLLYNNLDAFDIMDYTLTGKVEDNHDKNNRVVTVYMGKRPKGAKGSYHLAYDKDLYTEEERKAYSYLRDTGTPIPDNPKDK

[8] = luciferase reporter signal suppression in cells – H4 neuroglioma cells, luminescence, dose response (AID 1990); type: functional, cell-based

Sequence of Cytochrome P450 2D6 (P10635 whole entry): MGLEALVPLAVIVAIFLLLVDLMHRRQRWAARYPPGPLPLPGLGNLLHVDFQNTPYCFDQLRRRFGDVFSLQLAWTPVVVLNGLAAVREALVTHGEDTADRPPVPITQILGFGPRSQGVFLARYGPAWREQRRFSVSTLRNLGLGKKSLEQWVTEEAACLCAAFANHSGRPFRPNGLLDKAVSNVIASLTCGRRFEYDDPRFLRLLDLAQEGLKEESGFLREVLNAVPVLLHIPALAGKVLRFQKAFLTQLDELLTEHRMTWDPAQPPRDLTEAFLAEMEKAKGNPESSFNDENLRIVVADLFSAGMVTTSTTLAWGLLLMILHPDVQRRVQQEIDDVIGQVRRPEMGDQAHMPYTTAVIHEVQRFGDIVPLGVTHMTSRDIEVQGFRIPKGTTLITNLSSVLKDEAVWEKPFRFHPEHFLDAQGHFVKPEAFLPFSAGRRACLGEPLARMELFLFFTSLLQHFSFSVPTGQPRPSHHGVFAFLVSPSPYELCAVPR

SMILES	IC50 [1]	EC50 [2]	other results
Cc1ccc(CN2CC(C(=O)NCCCSc3ccccc3)CC2=O)cc1 (centres undefined)	> 47.1 µM (inactive)	> 53 µM (inactive)	–
CCN(CC)C(=O)CSc1ncnc2c1cnn2-c1ccccc1	> 47.1 µM (inactive)	> 53 µM (inactive)	–
Cc1ccc(N2C(=O)CC(=O)NC2=O)c(C)c1	> 47.1 µM (inactive)	> 53 µM (inactive)	–
CCOC(=O)C(Cc1ccccc1)NC(=O)CCc1nnc2ccc(N3CCCC3)nn12 (centres undefined)	> 47.1 µM (inactive)	> 53 µM (inactive)	–
CCN=C(S)Nc1cc(OC)c(NC(=O)c2ccco2)cc1OC	> 47.1 µM (inactive)	> 53 µM (inactive)	–
CN(Cc1ccccn1)C(=O)C1CCC(=O)N(Cc2cccc(C(F)(F)F)c2)C1 (centres undefined)	> 47.1 µM (inactive)	> 53 µM (inactive)	–
Cc1ccc(NC(=O)c2c(C(F)(F)F)nn(C)c2SCc2cccc(C(F)(F)F)c2)cc1C	–	–	EC50 [3]: > 60 µM (inconclusive); EC50 [4]: 2.52 µM (active); AC50 (INS1): 5.94 µM (active); AC50 (Cytochrome P450 2D6): 14.1 µM (inconclusive)
O=C(CCC(=O)Nc1ccc(Br)cc1)N/N=C/c1ccccc1O	–	–	EC50 (Streptococcus): 14.3 µM (active); AC50 (INS1): 3.65 µM (active); EC50 [5]: 5.1 µM (active); EC50 [6]: 33.8 µM (active); EC50 [7]: 8.55 µM (active); EC50 (Streptokinase A): > 150 µM (not active); EC50 [8]: 12.6 µM (active)
COC(=O)c1ccc(CNC(=O)COC(=O)CC23CC4CC(CC(Br)(C4)C2)C3)cc1	> 47.1 µM (inactive)	> 53 µM (inactive)	–
O=C(Nc1cccn(Cc2c(Cl)cccc2Cl)c1=O)c1c(Cl)cccc1Cl	9.97 µM (active)	> 53 µM (inactive)	–
Cn1c(=O)n(C)c2cc(S(=O)(=O)Nc3cc(Cl)ccc3O)ccc21	> 47.1 µM (inactive)	> 53 µM (inactive)	–
